# From article PMC10458458, “Characterization of Anticancer Effects of the Analogs of DJ4, a Novel Selective Inhibitor of ROCK and MRCK Kinases” (Pharmaceuticals, 2023)
# How the values were obtained:
# A549 lung cancer cells = test: Cell cycle analysis (propidium iodide, flow cytometry); assay type: cell-based, human; details: A549, serum-starved, 24 h (vehicle 1%)
# Method: Since DJ4 inhibits phosphorylation of MLC, we hypothesized that DJ4-treated cells are unable to complete cell division and arrest in G2/M phase of the cell cycle. To test this hypothesis, A549 lung cancer cells were synchronized in the G1 phase by serum-starvation for 24 h. After serum replenishment, cells were further treated with 2.5 µM, 5 µM, and 10 µM DJ-4 for 16-, 24-, and 48 h (Figure 3A). Before treatment with DJ4 (time zero), about 80% of cells were in the G1 phase, 20% in the G2/M phase, and essentially none in the S phase. In vehicle treated control cells, there were minimal cells in the G2/M phase at both 24 h (1%) and 48 h (8%). […] At 48 h, cells remained arrested in the G2/M phase, but also, there was an increase in the sub-G1 cell population indicating apoptotic cells.
# Figure 3 DJ4 arrests A549 lung cancer cells in G2/M phase and induces apoptotic cell death in NSCLC and breast cancer cells. (A). A549 cells were serum-starved for 24 h and treated for 16 h, 24 h, and 48 h with indicated concentrations. Propidium iodide stained cells were analyzed for DNA content by flow cytometry. The cell cycle graphs indicate distribution of cells in the G1, S, and G2/M phases of cell cycle. Sub-G1 cell population indicates apoptotic cells. (B). Annexin V staining of A549 cells. The cells were treated with indicated concentrations and durations. Percent annexin V + cells were analyzed using Muse^TM cell analyzer. Error bars indicate SEM. n = 2. (C). Analysis of annexin V + ve and mitochondrial membrane depolarized cells. MDA-MB-231 cells were treated for 48 h at the indicated concentrations. Staurosporin (2.5 µM) was used as a positive control. Error bars indicate SEM. n = 2. * p < 0.05. […] These are best readings and their digits are not certain: DMSO 7 and 14; DJ4 1.25 μM 10 and 22; DJ4 2.5 μM 23 and 40; Staurosporin 12 and 40 / Panel B, 24 h: the ** is read as belonging to the 5 μM bar (10), not the 2.5 μM bar (8); this is not fully certain […]
# [1] = test system: HL60VCR acute myeloid leukemia cells; test: Cell number and cell cycle in multidrug resistant cells; assay type: cell-based, human; details: 2.5 µM and 5 µM
# Method: The following cell lines used in this study were obtained from ATCC: NSCLC (A549, CCL-185; H522, CRL-5810; H23, CRL-5800; H2126, CCL-256; H460, HTB-177), melanoma (A375M, CRL-1619), and breast cancer (MDA-MB-231, HTB-26). Cells were maintained in DMEM or RPMI media (Cellgro, Corning, NY, USA) supplemented with 10% fetal bovine serum (Gibco, Fisher Scientific, Hampton, NH, USA) and penicillin/streptomycin (Gibco, Fisher Scientific, Hampton, NH, USA) at 37 °C with 5% CO2 humidified incubator. Acute myeloid leukemia cells (AML, HL60; CCL240) were obtained from ATCC while vincristine resistant HL60 (HL60VCR) cells were a gift from Dr. Hong-Gang Wang (Penn State College of Medicine, Hershey, PA, USA) and both the cells were cultured in IMDM medium (HyClone, Washington, D.C., USA) with 10% FBS.
# Figure S3. DJ4 was ineffective in multidrug resistant HL60VCR acute myeloid leukemia cells.
# A. Endogenous expression of p-glycoprotein (P-gp) in HL60 and HL60VCR (multidrug resistant cells). β-Actin was used as internal control.
# B. P-gp inhibitor cyclosporine A (CsA) treatment (2.5 µM) sensitized resistant cancer cells to DJ4. […] Number of cells were counted using MuseTM cell analyzer.
# Statistical significance was analyzed by one-way ANOVA and Dunnett’s multiple comparison post-test. […]
# C. […] The cells were treated at 2.5 µM and 5 µM concentrations and analyzed using flow cytometry. […]
smiles,measurement,setting,value
O=C1N/C(=N\CCc2ccccc2)S/C1=C/c1c[nH]c2ncccc12 [DJ4],G2/M cell population,A549 lung cancer cells; 2.5 µM,31%
same,G2/M cell population,A549 lung cancer cells; 5 µM,42%
same,G2/M cell population,A549 lung cancer cells; 10 µM,45%
same,effect in multidrug resistant cells,[1],ineffective
